Values quoted from earlier work, collected in patent US20220152053A1, “METHODS AND COMPOSITIONS FOR TREATING VARIOUS DISORDERS” (Amylyx Pharmaceuticals, Inc., priority 2019, published 2022).
Read-outs that look alike come from different tables or passages of the source.

How the values were obtained:
subjects = conditions: prior human experience
liver enzyme levels = conditions: in vivo
Sprague-Dawley rats = conditions: oral, 50, 250, and 1000 mg/kg/day, 2 years, males and females
CD-1 mice = conditions: oral, 50, 250, and 1000 mg/kg/day, 2 years
cancer subjects = conditions: intravenous, 250-300 mg/kg/day for 14 days, repeated at 4-week intervals
[1] = test system: subjects with urea cycle disorders; conditions: for Other (rare) adverse events, frequency: gastrointestinal, hematologic, cardiovascular, renal, psychiatric, skin, miscellaneous
[2] = test system: G93A SOD1 mouse model of ALS; conditions: in vivo
ALS subjects = conditions: daily dosages between 9 and 21 grams, 20 weeks
rat = conditions: intrarectal instillation, 78 weeks
CYP 2D6 = CYP 2D6 (Homo sapiens, UniProt P10635); conditions: at 20 times the intended clinical concentration (Cmax)
CYP 2D6, sequence (P10635 whole entry): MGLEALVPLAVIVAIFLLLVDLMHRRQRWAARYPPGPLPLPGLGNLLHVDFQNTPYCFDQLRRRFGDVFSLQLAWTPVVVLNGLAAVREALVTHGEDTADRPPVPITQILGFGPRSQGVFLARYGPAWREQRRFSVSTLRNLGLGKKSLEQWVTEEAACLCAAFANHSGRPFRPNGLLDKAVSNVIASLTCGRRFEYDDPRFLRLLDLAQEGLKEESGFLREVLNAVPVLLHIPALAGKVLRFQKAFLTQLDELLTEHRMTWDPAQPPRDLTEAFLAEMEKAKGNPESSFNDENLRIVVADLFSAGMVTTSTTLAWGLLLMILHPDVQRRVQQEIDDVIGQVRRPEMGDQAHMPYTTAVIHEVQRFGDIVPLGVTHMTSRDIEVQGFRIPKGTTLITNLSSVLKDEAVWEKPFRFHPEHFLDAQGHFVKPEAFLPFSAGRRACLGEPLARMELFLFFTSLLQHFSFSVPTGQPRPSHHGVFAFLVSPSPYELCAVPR

CYP 1A2 = target: T1, CYP 1A2 (Homo sapiens, UniProt P05177); conditions: at 20 times the intended clinical concentration (Cmax)
T1 sequence (P05177 1-516): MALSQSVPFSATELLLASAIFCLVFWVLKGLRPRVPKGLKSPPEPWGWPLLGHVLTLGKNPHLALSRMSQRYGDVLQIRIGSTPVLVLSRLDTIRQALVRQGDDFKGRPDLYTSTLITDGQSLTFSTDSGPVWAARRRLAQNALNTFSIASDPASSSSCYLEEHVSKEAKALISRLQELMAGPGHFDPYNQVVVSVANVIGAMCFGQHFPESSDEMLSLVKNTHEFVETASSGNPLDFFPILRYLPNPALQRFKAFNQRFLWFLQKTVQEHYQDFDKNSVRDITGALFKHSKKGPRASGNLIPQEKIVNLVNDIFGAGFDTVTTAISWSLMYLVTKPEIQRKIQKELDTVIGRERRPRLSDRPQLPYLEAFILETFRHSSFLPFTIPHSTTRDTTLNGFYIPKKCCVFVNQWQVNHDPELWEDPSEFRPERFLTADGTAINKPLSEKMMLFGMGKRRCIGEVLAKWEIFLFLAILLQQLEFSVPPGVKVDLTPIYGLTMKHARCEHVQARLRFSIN

## C[C@H](CCC(=O)NCCS(=O)(=O)O)[C@H]1CC[C@H]2[C@@H]3[C@@H](O)C[C@@H]4C[C@H](O)CC[C@]4(C)[C@H]3CC[C@]12C [TURSO, taurursodiol]
subjects
  frequency of adverse reactions (abdominal discomfort, abdominal pain, diarrhea, nausea, pruritus, rash): ≥ 1%
subjects; listed as TUDCA
  frequency of adverse reactions (abdominal discomfort, abdominal pain, diarrhea, nausea, pruritus, rash): > 1%

## C[C@H](CCC(=O)O)[C@H]1CC[C@H]2[C@@H]3[C@@H](O)C[C@@H]4C[C@H](O)CC[C@]4(C)[C@H]3CC[C@]12C [Ursodeoxycholic acid]
Liver enzyme levels
  association with liver damage: has not been associated with liver damage
Sprague-Dawley rats
  tumorigenicity: statistically significant dose-related increased incidences of pheochromocytomas of adrenal medulla
CD-1 mice
  tumorigenicity: not tumorigenic

## O=C(O)Cc1ccccc1 [phenylacetate, phenylacetic acid]
Cancer subjects
  Neurotoxicity: Neurotoxicity was reported

## O=C(O)CCCc1ccccc1 [phenylbutyrate, sodium phenylbutyrate]
[1]; all subjects
  Decreased appetite: 4%
[1]
  Other (rare) adverse events, frequency: ≤ 2%
[1]; listed as PB
  Other (rare) adverse events, frequency: < 2%
[1]; human, in vivo
  Body odor: 3%
  bad taste or taste aversion: 3%
[1]; menstruating subjects
  amenorrhea/menstrual dysfunction (irregular menstrual cycles): 23%
[2]
  survival: increase survival
ALS subjects
  safety and tolerability: generally safe and tolerable

## C[C@H](CCC(=O)NCCS(=O)(=O)O)[C@H]1CC[C@H]2[C@@H]3CC[C@@H]4C[C@H](O)CC[C@]4(C)[C@H]3C[C@H](O)[C@]12C [tauro-deoxycholic acid]
rat
  effect when co-administered with a carcinogenic agent: tumor-promoting effect
  tumor production, bile acid alone: did not produce any tumors

## Phenylacetylacetate
CYP 2D6
  inhibition of CYP 2D6: inhibitory
CYP 1A2
  inhibition of CYP 1A2: inhibitory
